Assay results published in patent US6277866A, “1-benzyl-4[(5,6-dimethoxy-2-fluoro-1-indanon)-2-yl]methylpiperidine” (priority 1999, dated 2001).
Where a name gives a salt, the structure may show the parent alone.

Target: T1, acetylcholinesterase (Rattus norvegicus, UniProt P37136)
T1 construct: Using a rat brain homogenate as a source of acetylcholinesterase; from tissue; host or cells: rat brain homogenate
Assay: Inhibitory action on acetylcholinesterase in vitro (rat brain homogenate, Ellman method)
Type: biochemical
Conditions: acetylthiocholine substrate, DTNB, 412 nm, compounds dissolved in physiological saline, read-out: 50% inhibitory concentration (IC50) on acetylcholinesterase
Experimental: Inhibitory action on acetylcholinesterase in vitro
Using a rat brain homogenate as a source of acetylcholinesterase, its esterase activity was measured in accordance with the method of Ellman et al^1). Acetylthiocholine as the substrate, sample and DTNB (5,5'-dithiobis(2-nitrobenzoic acid)) were added to the homogenate and incubated, whereby the produced thiocholine was reacted with DTNB and the resulting yellow product was measured for the change of absorbance at 412 nm to determine the acetylcholinesterase activity.
Each of the following compounds was used after dissolved in physiological saline.

T1 sequence (P37136 32-614): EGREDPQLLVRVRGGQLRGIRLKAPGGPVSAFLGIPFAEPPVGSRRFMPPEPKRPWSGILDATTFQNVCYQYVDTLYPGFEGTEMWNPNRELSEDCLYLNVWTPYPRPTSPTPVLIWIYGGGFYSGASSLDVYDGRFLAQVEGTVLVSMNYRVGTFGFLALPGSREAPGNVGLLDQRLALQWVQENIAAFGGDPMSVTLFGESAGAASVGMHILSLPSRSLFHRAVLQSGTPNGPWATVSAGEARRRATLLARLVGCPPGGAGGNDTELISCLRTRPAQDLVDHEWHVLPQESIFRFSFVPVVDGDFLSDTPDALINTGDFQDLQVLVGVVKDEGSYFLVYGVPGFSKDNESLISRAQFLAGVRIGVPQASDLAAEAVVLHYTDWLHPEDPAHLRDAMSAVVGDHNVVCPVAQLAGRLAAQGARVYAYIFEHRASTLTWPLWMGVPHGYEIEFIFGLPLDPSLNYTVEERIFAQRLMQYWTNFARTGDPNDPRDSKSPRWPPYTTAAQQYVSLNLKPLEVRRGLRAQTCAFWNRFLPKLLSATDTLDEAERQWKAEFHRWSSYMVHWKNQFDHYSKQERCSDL

`COc1cc2c(cc1OC)C(=O)C(F)(CC1CCN(Cc3ccccc3)CC1)C2` (stereo not shown) [Compound 1, 1-benzyl-4-[5,6-dimethoxy-2-fluoro-1-indanon)-2-yl]methylpiperidine hydrochloride] was tested, and the IC50 was 1.3 nM.
